In ChEMBL document CHEMBL4613212, “Insights of synthetic analogues of anti-leprosy agents” (Bioorg Med Chem, 2019):
Values after ≈ are worked out from the molar mass of the structure shown.

Legend:
[1] = tested on: Monocyte; experiment: Antiinflammatory activity in human monocytes assessed as inhibition of LPS-induced TNFaplha production at 50 uM preincubated for 15 mins followed by LPS addition and measured after 4 hrs by ELISA relative to control; assay type: functional
[2] = Cytotoxicity against LPS-induced human monocytes assessed as cell viability at 0.5 uM by tryphan blue staining based assay relative to control; parameters: species or system Monocyte; conditions: read-out: Activity
[3] = tested on: Monocyte; experiment: Antiinflammatory activity in human monocytes assessed as inhibition of LPS-induced TNFaplha production at 5 uM preincubated for 15 mins followed by LPS addition and measured after 4 hrs by ELISA relative to control; assay type: functional
[4] = tested on: Monocyte; experiment: Antiinflammatory activity in human monocytes assessed as inhibition of LPS-induced TNFaplha production at 25 uM preincubated for 15 mins followed by LPS addition and measured after 4 hrs by ELISA relative to control; assay type: functional
[5] = Cytotoxicity against LPS-induced human monocytes assessed as cell viability at 25 uM by tryphan blue staining based assay relative to control; parameters: species or system Monocyte; conditions: read-out: Activity
[6] = tested on: Monocyte; experiment: Antiinflammatory activity in human monocytes assessed as inhibition of LPS-induced TNFaplha production at 0.5 uM preincubated for 15 mins followed by LPS addition and measured after 4 hrs by ELISA relative to control; assay type: functional
[7] = Cytotoxicity against LPS-induced human monocytes assessed as cell viability at 50 uM by tryphan blue staining based assay relative to control; parameters: species or system Monocyte; conditions: read-out: Activity
[8] = Cytotoxicity against LPS-induced human monocytes assessed as cell viability at 5 uM by tryphan blue staining based assay relative to control; parameters: species or system Monocyte; conditions: read-out: Activity
[9] = tested on: Mycobacterium leprae; experiment: Anti-leprotic activity against Mycobacterium leprae infected in BALB/c weanling mouse assessed as bacteria killing at 100 mg/kg, ip administrated for 60 days and measured after 1 year by most probable number technique analysis relative to control; assay type: functional
[10] = tested on: Mycobacterium leprae; experiment: Anti-leprotic activity against Mycobacterium leprae infected in BALB/c weanling mouse assessed as bacteria killing at 100 mg/kg, ip administrated for 60 days and measured after 1 year by Spearman-Karber technique analysis relative to control; assay type: functional
[11] = tested on: Mycobacterium tuberculosis; experiment: Antitubercular activity against Mycobacterium tuberculosis H37Rv ATCC 27294 assessed as inhibition of [3H]-thymidine incorporation relative to control; assay type: functional
[12] = tested on: Mycobacterium tuberculosis; experiment: Antitubercular activity against Mycobacterium tuberculosis H37Rv ATCC 27294 assessed as growth inhibition at 6.25 ug/ml by microplate alamar blue assay relative to control; assay type: functional
[13] = tested on: Mycobacterium tuberculosis; experiment: Antitubercular activity against Mycobacterium tuberculosis H37Rv ATCC 27294 assessed as inhibition of [3H]-thymidine incorporation; assay type: functional, organism-based
[14] = tested on: Mycobacterium leprae; experiment: Anti-leprotic activity against rifampicin-susceptible Mycobacterium leprae subcultures at 4 weeks assessed as ATP level per 10^7 cells at 0.05 mg/L measured by bioluminescence assay (reference value: 425 +/- 64 pg); assay type: functional
[15] = tested on: Mycobacterium leprae; experiment: Anti-leprotic activity against rifampicin-susceptible Mycobacterium leprae primary cultures at 4 weeks assessed as ATP level per 10^7 cells at 0.1 mg/L measured by bioluminescence assay (reference value: 332 +/- 46 pg); assay type: functional
[16] = tested on: Mycobacterium leprae; experiment: Anti-leprotic activity against rifampicin-susceptible Mycobacterium leprae subcultures at 4 weeks assessed as [3H]thymidine uptake per 5 times 10^7 cells at 0.025 mg/L incubated for 24 hrs (reference value: 1.41 +/- 0.20 pmol); assay type: functional
[17] = tested on: Mycobacterium leprae; experiment: Anti-leprotic activity against rifampicin-susceptible Mycobacterium leprae primary cultures at 4 weeks assessed as ATP level per 10^7 cells at 0.2 mg/L measured by bioluminescence assay (reference value: 332 +/- 46 pg); assay type: functional
[18] = tested on: Mycobacterium leprae; experiment: Anti-leprotic activity against rifampicin-susceptible Mycobacterium leprae primary cultures at 4 weeks assessed as [3H]thymidine uptake per 5 times 10^7 cells at 0.05 mg/L incubated for 24 hrs (reference value: 1.05 +/- 0.16 pmol); assay type: functional
[19] = tested on: Mycobacterium leprae; experiment: Anti-leprotic activity against rifampicin-susceptible Mycobacterium leprae subcultures at 4 weeks assessed as [3H]thymidine uptake per 5 times 10^7 cells at 0.05 mg/L incubated for 24 hrs (reference value: 1.41 +/- 0.20 pmol); assay type: functional
[20] = tested on: Mycobacterium leprae; experiment: Anti-leprotic activity against rifampicin-susceptible Mycobacterium leprae subcultures at 4 weeks assessed as ATP level per 10^7 cells at 0.1 mg/L measured by bioluminescence assay (reference value: 425 +/- 64 pg); assay type: functional
[21] = tested on: Mycobacterium leprae; experiment: Anti-leprotic activity against rifampicin-susceptible Mycobacterium leprae subcultures at 4 weeks assessed as [3H]thymidine uptake per 5 times 10^7 cells at 0.1 mg/L incubated for 24 hrs (reference value: 1.41 +/- 0.20 pmol); assay type: functional
[22] = tested on: Mycobacterium leprae; experiment: Anti-leprotic activity against rifampicin-susceptible Mycobacterium leprae subcultures at 4 weeks assessed as [3H]thymidine uptake per 5 times 10^7 cells at 0.2 mg/L incubated for 24 hrs (reference value: 1.41 +/- 0.20 pmol); assay type: functional
[23] = tested on: Mycobacterium leprae; experiment: Anti-leprotic activity against rifampicin-susceptible Mycobacterium leprae primary cultures at 4 weeks assessed as [3H]thymidine uptake per 5 times 10^7 cells at 0.1 mg/L incubated for 24 hrs (reference value: 1.05 +/- 0.16 pmol); assay type: functional
[24] = tested on: Mycobacterium leprae; experiment: Anti-leprotic activity against rifampicin-susceptible Mycobacterium leprae primary cultures at 4 weeks assessed as [3H]thymidine uptake per 5 times 10^7 cells at 0.025 mg/L incubated for 24 hrs (reference value: 1.05 +/- 0.16 pmol); assay type: functional
[25] = tested on: Mycobacterium leprae; experiment: Anti-leprotic activity against rifampicin-susceptible Mycobacterium leprae subcultures at 4 weeks assessed as ATP level per 10^7 cells at 0.2 mg/L measured by bioluminescence assay (reference value: 425 +/- 64 pg); assay type: functional
[26] = tested on: Mycobacterium leprae; experiment: Anti-leprotic activity against rifampicin-susceptible Mycobacterium leprae subcultures at 4 weeks assessed as ATP level per 10^7 cells at 0.025 mg/L measured by bioluminescence assay (reference value: 425 +/- 64 pg); assay type: functional
[27] = tested on: Mycobacterium leprae; experiment: Anti-leprotic activity against rifampicin-susceptible Mycobacterium leprae primary cultures at 4 weeks assessed as ATP level per 10^7 cells at 0.025 mg/L measured by bioluminescence assay (reference value: 332 +/- 46 pg); assay type: functional
[28] = tested on: Mycobacterium leprae; experiment: Anti-leprotic activity against rifampicin-susceptible Mycobacterium leprae primary cultures at 4 weeks assessed as [3H]thymidine uptake per 5 times 10^7 cells at 0.2 mg/L incubated for 24 hrs (reference value: 1.05 +/- 0.16 pmol); assay type: functional
[29] = tested on: Mycobacterium leprae; experiment: Anti-leprotic activity against rifampicin-susceptible Mycobacterium leprae primary cultures at 4 weeks assessed as ATP level per 10^7 cells at 0.05 mg/L measured by bioluminescence assay (reference value: 332 +/- 46 pg); assay type: functional
[30] = Plasma concentration in rifampin-susceptible Mycobacterium leprae infected in BALB/c mouse at 6 mg/kg administered with food daily for 1 week by high-pressure liquid chromatography analysis; assay type: ADME, organism-based; conditions: po
[31] = Plasma concentration in rifampin-susceptible Mycobacterium leprae infected in BALB/c mouse at 6 mg/kg administered with food daily for 2 weeks by high-pressure liquid chromatography analysis; assay type: ADME, organism-based; conditions: po
[32] = Plasma concentration in rifampin-susceptible Mycobacterium leprae infected in BALB/c mouse at 6 mg/kg administered with food daily for 4 weeks by high-pressure liquid chromatography analysis; assay type: ADME, organism-based; conditions: po

SMILES: CCC1(N2C(=O)c3ccccc3C2=O)C(=O)NC(=O)N(c2ccccc2)C1=O (configuration not stated)
- inhibition at 50 µM [1]: 100%
- viability at 0.5 µM [2]: 87%
- inhibition at 5 µM [3]: 88%
- inhibition at 25 µM [4]: 100%
- viability at 25 µM [5]: 73%
- inhibition at 0.5 µM [6]: 12%
- viability at 50 µM [7]: 68%
- viability at 5 µM [8]: 80%

SMILES: NC[C@H]1O[C@H](O[C@H]2[C@H](O)[C@@H](O[C@H]3O[C@H](CO)[C@@H](O)[C@H](N)[C@H]3O)[C@H](N)C[C@@H]2N)[C@H](O)[C@@H](O)[C@@H]1O [KANAMYCIN]
- Activity [9]: 99.8%
- Activity [10]: 99.7%

SMILES: OC[C@H]1O[C@@H](n2cnc3c(-c4ccco4)nc(Cl)nc32)[C@H](O)[C@@H]1O
- inhibition (INH) [11]: 100%
- inhibition at 6.25 µg/mL [12]: 7%
- IC50 [13]: 3.4 µg/mL (≈ 9.64 µM)

SMILES: CCC(C)N1CCN(c2cc(O)c3nc4c5c6c7c(C)c(O)c5c(=O)c(c-4oc3c2)NC(=O)/C(C)=C\C=C\[C@H](C)[C@H](O)[C@@H](C)[C@@H](O)[C@@H](C)[C@H](OC(C)=O)[C@H](C)[C@@H](OC)/C=C/O[C@@](C)(O7)C6=O)CC1 (stereo in doubt; form 2)
- Activity [14]: 221 pg
- Activity [15]: 0 pg
- Activity [16]: 0 pmol
- Activity [17]: 0 pg
- Activity [18]: 0.77 pmol
- Activity [19]: 1.28 pmol
- Activity [20]: 0 pg
- Activity [21]: 0.76 pmol
- Activity [22]: 0 pmol
- Activity [23]: 0 pmol
- Activity [24]: 0.298 pmol
- Activity [25]: 0 pg
- Activity [26]: 363 pg
- Activity [27]: 298 pg
- Activity [28]: 0 pmol
- Activity [29]: 233 pg

SMILES: OO [HYDROGEN PEROXIDE]
- concentration at 168 h [30]: 42 ng/mL
- concentration at 336 h [31]: 50 ng/mL
- concentration at 672 h [32]: 55 ng/mL
